Test results from ChEMBL document CHEMBL1201862, “PubChem BioAssay data set” (2004).
Blank lines part the entries; values can stand above or below the molecule they belong to. Active and inactive are the calls of the source.

Columns and labels:
Cytochrome P450 2C9 = Cytochrome P450 2C9 (Homo sapiens, UniProt P11712); details: Potency
[1] = target: Photoreceptor-specific nuclear receptor (Homo sapiens, UniProt Q9Y5X4); assay type: functional;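 further: potency for compounds that break the NR2E3 corepressor complex and count as activators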
Photoreceptor-specific nuclear receptor, sequence (Q9Y5X4 whole entry): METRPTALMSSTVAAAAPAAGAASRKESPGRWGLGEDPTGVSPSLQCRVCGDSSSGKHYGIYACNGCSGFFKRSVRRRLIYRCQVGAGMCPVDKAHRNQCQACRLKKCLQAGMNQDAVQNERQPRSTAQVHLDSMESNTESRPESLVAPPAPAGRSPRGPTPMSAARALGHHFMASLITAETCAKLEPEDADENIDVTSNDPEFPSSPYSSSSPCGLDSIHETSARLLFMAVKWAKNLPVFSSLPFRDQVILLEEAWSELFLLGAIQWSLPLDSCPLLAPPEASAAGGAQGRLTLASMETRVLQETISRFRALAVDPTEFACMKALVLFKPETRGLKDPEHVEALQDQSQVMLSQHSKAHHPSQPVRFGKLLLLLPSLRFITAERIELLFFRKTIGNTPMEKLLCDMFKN

[2] = target: T1, Induced myeloid leukemia cell differentiation protein Mcl-1 (Homo sapiens, UniProt Q07820); experiment: blockers of MCL1 binding to BIM peptide – biochemical, fluorescence polarization, BIM-BH3 peptide, 1536-well, dose response (AID 2217)
T1 sequence (Q07820 whole entry): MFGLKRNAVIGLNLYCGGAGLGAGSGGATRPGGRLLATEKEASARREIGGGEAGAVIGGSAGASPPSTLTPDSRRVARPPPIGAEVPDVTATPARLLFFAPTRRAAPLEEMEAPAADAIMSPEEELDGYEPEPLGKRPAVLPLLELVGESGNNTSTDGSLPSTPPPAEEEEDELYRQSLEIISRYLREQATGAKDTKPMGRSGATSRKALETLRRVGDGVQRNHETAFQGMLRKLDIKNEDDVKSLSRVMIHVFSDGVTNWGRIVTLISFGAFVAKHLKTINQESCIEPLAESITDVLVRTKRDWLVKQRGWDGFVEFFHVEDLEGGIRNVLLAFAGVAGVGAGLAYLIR

Bcl-2-like protein 10 = target: T2, Bcl-2-like protein 10 (Homo sapiens, UniProt Q9HD36); experiment: Concentration-response of Bcl-B inhibitors by biochemical FP with TR3 (AID 1243); assay type: functional
T2 sequence (Q9HD36 whole entry): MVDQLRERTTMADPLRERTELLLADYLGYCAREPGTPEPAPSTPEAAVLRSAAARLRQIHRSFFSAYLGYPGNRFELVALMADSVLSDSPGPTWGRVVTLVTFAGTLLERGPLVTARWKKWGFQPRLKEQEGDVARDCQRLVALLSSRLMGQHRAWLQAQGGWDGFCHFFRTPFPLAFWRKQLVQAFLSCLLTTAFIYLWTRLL

[3] = target: T1, Induced myeloid leukemia cell differentiation protein Mcl-1; assay type: functional
[4] = target: Peroxisome proliferator-activated receptor gamma/Nuclear receptor corepressor 2 (Homo sapiens, UniProt P37231+Q9Y618); assay type: functional
Peroxisome proliferator-activated receptor gamma/Nuclear receptor corepressor 2, sequence (P37231 whole entry): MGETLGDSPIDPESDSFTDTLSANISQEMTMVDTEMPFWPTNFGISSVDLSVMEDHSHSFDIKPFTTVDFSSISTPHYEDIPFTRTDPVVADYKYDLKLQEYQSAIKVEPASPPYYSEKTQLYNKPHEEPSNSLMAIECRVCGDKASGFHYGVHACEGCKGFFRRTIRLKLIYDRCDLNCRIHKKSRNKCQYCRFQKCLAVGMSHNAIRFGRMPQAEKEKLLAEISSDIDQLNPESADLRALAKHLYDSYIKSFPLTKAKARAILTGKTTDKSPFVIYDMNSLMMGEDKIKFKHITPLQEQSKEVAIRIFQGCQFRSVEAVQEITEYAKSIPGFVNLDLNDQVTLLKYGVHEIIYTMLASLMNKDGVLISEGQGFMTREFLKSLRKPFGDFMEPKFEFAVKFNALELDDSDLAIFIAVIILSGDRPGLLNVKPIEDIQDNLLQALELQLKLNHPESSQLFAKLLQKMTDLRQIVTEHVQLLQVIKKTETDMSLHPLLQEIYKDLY
Peroxisome proliferator-activated receptor gamma/Nuclear receptor corepressor 2, sequence (Q9Y618 whole entry): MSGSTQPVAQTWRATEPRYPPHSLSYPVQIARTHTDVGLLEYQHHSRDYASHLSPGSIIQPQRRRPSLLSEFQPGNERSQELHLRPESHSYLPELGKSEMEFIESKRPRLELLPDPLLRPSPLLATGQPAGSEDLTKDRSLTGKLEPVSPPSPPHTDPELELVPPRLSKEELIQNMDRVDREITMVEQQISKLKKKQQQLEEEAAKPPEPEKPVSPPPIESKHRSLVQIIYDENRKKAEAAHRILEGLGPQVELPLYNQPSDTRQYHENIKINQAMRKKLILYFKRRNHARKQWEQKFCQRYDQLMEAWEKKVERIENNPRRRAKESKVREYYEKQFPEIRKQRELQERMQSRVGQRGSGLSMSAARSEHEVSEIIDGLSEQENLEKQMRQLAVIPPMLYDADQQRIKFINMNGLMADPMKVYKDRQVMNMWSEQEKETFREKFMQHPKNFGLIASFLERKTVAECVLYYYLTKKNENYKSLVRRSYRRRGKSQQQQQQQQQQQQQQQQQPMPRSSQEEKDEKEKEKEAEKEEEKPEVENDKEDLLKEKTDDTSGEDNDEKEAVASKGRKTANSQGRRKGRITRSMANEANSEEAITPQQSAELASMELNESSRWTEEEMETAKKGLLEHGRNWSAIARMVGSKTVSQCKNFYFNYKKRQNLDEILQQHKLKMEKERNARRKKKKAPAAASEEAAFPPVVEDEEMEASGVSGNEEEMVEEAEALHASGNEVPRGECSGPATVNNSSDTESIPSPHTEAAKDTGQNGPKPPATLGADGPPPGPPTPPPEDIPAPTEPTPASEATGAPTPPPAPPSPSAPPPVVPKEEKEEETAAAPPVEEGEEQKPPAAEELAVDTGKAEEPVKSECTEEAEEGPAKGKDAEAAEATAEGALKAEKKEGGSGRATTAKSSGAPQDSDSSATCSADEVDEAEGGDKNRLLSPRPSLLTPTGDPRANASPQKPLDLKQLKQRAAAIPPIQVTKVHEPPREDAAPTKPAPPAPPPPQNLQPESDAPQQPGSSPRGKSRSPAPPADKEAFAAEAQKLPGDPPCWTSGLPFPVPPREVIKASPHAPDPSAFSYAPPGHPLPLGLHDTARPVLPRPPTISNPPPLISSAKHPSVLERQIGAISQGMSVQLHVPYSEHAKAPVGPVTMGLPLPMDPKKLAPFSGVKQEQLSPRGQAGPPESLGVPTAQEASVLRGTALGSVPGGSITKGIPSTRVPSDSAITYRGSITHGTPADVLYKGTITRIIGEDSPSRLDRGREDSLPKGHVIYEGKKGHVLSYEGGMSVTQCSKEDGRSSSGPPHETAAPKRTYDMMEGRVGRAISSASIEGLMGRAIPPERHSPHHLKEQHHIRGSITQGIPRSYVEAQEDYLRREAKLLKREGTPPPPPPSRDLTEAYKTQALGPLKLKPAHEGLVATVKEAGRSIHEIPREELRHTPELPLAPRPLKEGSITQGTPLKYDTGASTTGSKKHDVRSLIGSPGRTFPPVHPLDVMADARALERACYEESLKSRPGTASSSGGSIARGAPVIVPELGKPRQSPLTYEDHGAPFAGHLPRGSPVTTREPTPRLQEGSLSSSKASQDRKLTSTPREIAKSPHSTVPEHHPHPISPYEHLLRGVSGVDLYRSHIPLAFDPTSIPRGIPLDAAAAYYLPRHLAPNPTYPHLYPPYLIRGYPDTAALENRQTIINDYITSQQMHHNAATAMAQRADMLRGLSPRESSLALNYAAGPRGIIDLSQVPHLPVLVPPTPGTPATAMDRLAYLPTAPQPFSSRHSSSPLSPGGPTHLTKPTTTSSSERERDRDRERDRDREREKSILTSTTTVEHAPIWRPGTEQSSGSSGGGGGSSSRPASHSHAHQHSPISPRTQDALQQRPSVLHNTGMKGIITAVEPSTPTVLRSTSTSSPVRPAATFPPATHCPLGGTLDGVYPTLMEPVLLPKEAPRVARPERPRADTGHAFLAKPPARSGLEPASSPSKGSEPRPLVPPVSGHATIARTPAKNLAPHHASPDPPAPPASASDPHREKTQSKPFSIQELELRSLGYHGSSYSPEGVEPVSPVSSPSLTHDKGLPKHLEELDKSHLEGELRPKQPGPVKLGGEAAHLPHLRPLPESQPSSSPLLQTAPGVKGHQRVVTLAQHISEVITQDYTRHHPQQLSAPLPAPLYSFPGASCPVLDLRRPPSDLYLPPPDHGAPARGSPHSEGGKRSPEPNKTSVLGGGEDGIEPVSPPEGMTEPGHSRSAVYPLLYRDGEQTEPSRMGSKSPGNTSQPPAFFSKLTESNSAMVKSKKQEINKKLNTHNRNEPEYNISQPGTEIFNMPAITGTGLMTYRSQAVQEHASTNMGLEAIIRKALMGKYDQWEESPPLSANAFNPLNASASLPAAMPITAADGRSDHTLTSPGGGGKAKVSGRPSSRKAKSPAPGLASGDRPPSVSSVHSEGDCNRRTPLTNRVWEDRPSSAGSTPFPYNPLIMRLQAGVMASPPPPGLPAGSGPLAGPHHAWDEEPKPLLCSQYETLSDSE

Bcl-2-like protein 1 = Bcl-2-like protein 1 (Homo sapiens, UniProt Q07817); experiment: blockers of BCLXL peptide binding – biochemical, fluorescence polarization, 1536-well, selectivity assay for MCL1 inhibitor project, dose response (AID 2218)
Bcl-2-like protein 1, sequence (Q07817 whole entry): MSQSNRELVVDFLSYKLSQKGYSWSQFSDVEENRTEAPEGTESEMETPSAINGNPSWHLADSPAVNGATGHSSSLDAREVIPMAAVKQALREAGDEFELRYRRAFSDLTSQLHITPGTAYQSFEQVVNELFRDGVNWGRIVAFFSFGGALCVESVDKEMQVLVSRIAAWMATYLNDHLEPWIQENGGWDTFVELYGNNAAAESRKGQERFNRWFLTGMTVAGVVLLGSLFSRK

Staphylococcus aureus = experiment: Inhibitors of Bacterial Quorum Sensing Structure Activity Relationship (SAR) Analysis: Dose Response Assay. [Related pubchem assays: 700, 527 ]; assay type: functional, organism-based
[5] = mRNA 3' processing disruption, beta-gal signal increase – luminescence, S. cerevisiae SKY197-pL101, dose response (AID 2525); assay type: functional, cell-based

Cytochrome P450 2C9, sequence (P11712 whole entry): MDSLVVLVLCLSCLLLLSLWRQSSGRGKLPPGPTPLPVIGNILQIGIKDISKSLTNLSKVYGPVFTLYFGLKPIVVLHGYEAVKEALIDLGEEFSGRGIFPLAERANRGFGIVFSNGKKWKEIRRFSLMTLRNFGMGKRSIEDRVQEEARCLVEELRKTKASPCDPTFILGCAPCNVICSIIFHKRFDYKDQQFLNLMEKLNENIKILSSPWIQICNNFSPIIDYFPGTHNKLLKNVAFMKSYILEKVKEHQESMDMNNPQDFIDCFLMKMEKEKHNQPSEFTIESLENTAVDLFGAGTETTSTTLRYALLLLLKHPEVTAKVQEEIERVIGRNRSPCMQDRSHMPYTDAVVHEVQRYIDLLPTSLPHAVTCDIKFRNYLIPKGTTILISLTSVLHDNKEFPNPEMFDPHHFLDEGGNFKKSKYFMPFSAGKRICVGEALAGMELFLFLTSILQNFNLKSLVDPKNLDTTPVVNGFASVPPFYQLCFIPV

SMILES: CCCCCC[C@H]1C(=O)O[C@@H](C)[C@H](NC(=O)c2cccc(NC=O)c2O)C(=O)O[C@@H](C)[C@@H]1OC(=O)CC(C)C
AC50 (Cytochrome P450 2C9): 31.6 µM (inconclusive)

IC50 [1]: > 39.8 µM (not active)
IC50 [2]: 27.9 µM (not active)
EC50 (Bcl-2-like protein 10): 16.5 µM (active)
IC50 [3]: 2.98 µM (active)
IC50 [4]: 3.93 µM (active)
IC50 (Bcl-2-like protein 1): > 109 µM (not active)
SMILES: Cc1ccc(-c2cc(C(=O)O)c3cc(Br)ccc3n2)o1

SMILES: CCOC(=O)c1c(C)oc2cc(Br)c(O)c(Br)c12
IC50 (Staphylococcus aureus): 0.779 µM (active)

SMILES: Cc1ccc2[nH]c(/C(C#N)=C/c3ccc([N+](=O)[O-])o3)nc2c1
EC50 [5]: 4.03 µM (active)
